Experimental findings from publication PMC10653909, “PlzD modifies Vibrio vulnificus foraging behavior and virulence in response to elevated c-di-GMP” (mBio, 2023) are described below.

pKd: −log10 of the molar value.

This test concerns the target T1, PlzD.
T1 construct: His-tagged PlzD (aot11_00285, strain ATCC27562), expressed in E. coli BL21(DE3)
In words: micro-equilibrium dialysis with UV absorbance at […] nm, purified protein. Type of test: binding, Vibrio vulnificus. On the technique in general: Equilibrium dialysis compares concentrations on both sides of a semipermeable membrane.

`Nc1nc2c(ncn2[C@@H]2O[C@@H]3COP(=O)(O)O[C@H]4[C@@H](O)[C@H](n5cnc6c(=O)[nH]c(N)nc65)O[C@@H]4COP(=O)(O)O[C@H]3[C@H]2O)c(=O)[nH]1` [c-di-GMP] showed a pKd of 5.41.

Usually pKd stands for the Kd on a negative log10 scale, so that one unit is a factor of ten. Lower therefore signals a high Kd.
